Assays:
[1] = tested on: acetylcholine writhing; assay: mouse acetylcholine writhing test (analgesic activity); type: in vivo, mouse (CD-1); details: 1 mg/kg oral, 4 hours before intraperitoneal acetylcholine; writhes counted for 10 minutes
Procedure: This study was performed to evaluate and compare the analgesic effectiveness of the micronized and pulverized samples described in Example 1, Step A and Example 1, Step B. Analgesic activity was evaluated via the mouse acetylcholine writhing test using a modification of the procedure described by Collier et al in Nature (New Biol.), Volume 204: page 1316 (1964) and the British Journal of Pharmacology, Chemotherapy, Volume 32: page 295 (1968).
The test groups consisted of ten mile CD-1 mice (Charles River Laboratories) weighing 18-28 grams each. Test compounds suspended in 0.25% methylcellulose solution were administered orally by gavage and four hours later the mice were injected intraperitoneally with acetylcholine (0.55 mg/ml in 0.25% methyl cellulose). The number of writhes in each group of mice were counted for 10 minutes immediately following the injection of acetylcholine and percent inhibition was calculated as follows: […]

[2] = tested on: hind paw edema; assay: Anti-inflammatory activity: hind paw edema in adjuvant (Mycobacterium butyricum) arthritis rats; type: in vivo, rat (female Lewis); details: 1 mg/kg per day, dosed once daily for 4 days, paw volumes measured on fifth day
Procedure: The effectiveness of the micronized sample as an anti-inflammatory agent and its comparison to the pulverized form was evaluated.
This study is a modification of the method described by Wong, et al in the Journal of Pharmacology and Experimental Therapeutics, Vol. 185: No. 1, pages 127-138 (1973).
The left and right rear paws of female Lewis rats (Charles River Laboratories) weighing 160-180 grams each were measured by mercury displacement prior to injection (Day Zero).
Adjuvant arthritis was induced in this rat colony by subcutaneous injection of Mycobacterium butyricum (0.75 mg in 0.1 ml light mineral oil, Fisher) using an automated Cornwall syringe. On days 11-15 post-adjuvant, the injected animals with 0.25 to 0.76 ml paw edema were selected and distributed evenly, according to edema size, into control and experimental groups of ten rats each. Vehicle control and drug treatments were assigned to the groups at random. […] All animals were dosed once daily for 4 days and on the fifth day both hind paw volumes were again measured using mercury displacement.
The hind paw edema was determined for each rat by subtracting the hind paw volume measured on Day Zero from the hind paw volume measured on the fifth day of the study. Group means were determined and the drug effect was calculated as percent inhibition of the hind paw edema according to the following equation: […]

[3] = tested on: adjuvant polyarthritis; assay: Adjuvant polyarthritis in polyarthritic injected rats (hind feet weight); type: in vivo, rat (male Lewis); details: for ED50: oral once daily for 5 days (Days 9-13), hind feet weighed Day 15, 21600 min
Procedure: The object of this study was to compare the anti-inflammatory activity of the micronized and unmicronized samples when administered orally to polyarthritic injected rats.
This anti-inflammatory study was conducted according to the method described by Chang, Y., Pearson, C.M. and Abe, C. in Arthritis and Rheumatism, Volume 23: pp. 62-71 (1980).
Male Lewis rats weighing 200 to 220 grams were divided into groups of 5 and housed in hanging cages with food and water ad libitum. On Day Zero they were injected with 7.5 mg of N,N-dioctadecyl-N',N'bis(2-hydroxyethyl)propane diamine suspended in mineral oil subcutaneously at the base of the tail. On Day 9 the animals were weighed and compound administration was begun. The micronized and unmicronized samples described in Example 1, Steps A and B, were suspended in solution using a tissue homogenizer in 1% carboxy methyl cellulose. These compounds were administered orally once daily for 5 days (Days 9-13) with no dosing on day 14. On Day 15, the hind feet were removed just above the ankle joint and weighed, and percent difference from the diseased control was calculated.

SMILES	% Inhibition (acetylcholine writhing assay) [1] [%]	% Inhibition (hind paw edema) ([2]; listed as Example 1, Step B micronized) [%]	ED50 [3] [mg/kg]	increase in potency of micronized compared to unmicronized sample ([3]; ratio of ED50, adjuvant polyarthritis)	% Inhibition (hind paw edema) [2] [%]	degree of increase in anti-inflammatory effectiveness attributable to micronization vs unmicronized product ([3]; general statement, test not named)
CN1OCCC(=Cc2cc(C(C)(C)C)c(O)c(C(C)(C)C)c2)C1=O [Example 1, Step A, dihydro-4-(3,5-di-tert-butyl-4-hydroxy-benzylidene)-2-methyl-2H-1,2-oxazin-3(4H)-one]	100	35	2.8	almost six fold increase in potency		
CN1OCCC(=Cc2cc(C(C)(C)C)c(O)c(C(C)(C)C)c2)C1=O [Example 1, Step B, dihydro-4-(3,5-di-tert-butyl-4-hydroxy-benzylidene)-2-methyl-2H-1,2-oxazin-3(4H)-one]	63		16.2		20	
CN1OCCC(=Cc2cc(C(C)(C)C)c(O)c(C(C)(C)C)c2)C1=O [active ingredient, dihydro-4-(3,5-di-tert-butyl-4-hydroxybenzylidene)-2-methyl-2H-1,2-oxazin-3(4H)-one]						at least six fold
